According to US8906889B2, “C-3 cycloalkenyl triterpenoids with HIV maturation inhibitory activity” (priority 2012, dated 2014):
pEC50: −log10 of the molar value. Where a name gives a salt, the structure may show the parent alone.

System: recombinant NL4-3 virus (Renilla luciferase, Gag P373S)
Assay: HIV cell culture assay (luciferase reporter, MT-2 cells)
Type: cell-based
Conditions: luciferase activity
In short: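 MT-2 cells were infected for 4–5 days with NL4-3 carrying Renilla luciferase in place of part of nef and the Gag P373S change, in the presence of serially diluted inhibitor. Antiviral activity was quantified as luciferase signal from Dual Luciferase reagent.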

[1] = Renilla, NL43, MT-2 cells infected for 4-5 days with NLRluc recombinants

SMILES | pEC50 [1] | pEC50 (MT-2 cells infected for 4-5 days with NLRluc recombinants)
C=C(C)[C@@H]1CC[C@]2(NCCN3CCS(=O)(=O)CC3)CC[C@]3(C)[C@H](CC[C@@H]4[C@@]5(C)CC=C(C6=CC7C(C6)C7C(=O)O)C(C)(C)[C@@H]5CC[C@]43C)[C@@H]12 (mixture of isomers) [Example A18, 3-((1R,3aS,5aR,5bR,7aR,11aS,11bR,13aR,13bR)-3a-((2-(1,1-dioxidothiomorpholino)ethyl)amino)-5a,5b,8,8,11a-pentamethyl-1-(prop-1-en-2-yl)-2,3,3a,4,5,5a,5b,6,7,7a,8,11,11a,11b,12,13,13a,13b-octadecahydro-1H-cyclopenta[a]chrysen-9-yl)bicyclo[3.1.0]hex-2-ene-6-carboxylic acid] | 8.65 | 
C=C(C)[C@@H]1CC[C@]2(NCCN3CCS(=O)(=O)CC3)CC[C@]3(C)[C@H](CC[C@@H]4[C@@]5(C)CC=C(C6=CC(C(F)(F)C(=O)O)CC6)C(C)(C)[C@@H]5CC[C@]43C)[C@@H]12 (single isomer, unassigned) [Example A23] | 8.25 | 
C=C(C)[C@@H]1CC[C@]2(NCCN3CCC(S(C)(=O)=O)CC3)CC[C@]3(C)[C@H](CC[C@@H]4[C@@]5(C)CC=C(C6=CCC(NC(C)=O)(C(=O)O)CC6)C(C)(C)[C@@H]5CC[C@]43C)[C@@H]12 (mixture of isomers) [Example A32, 1-acetamido-4-((1R,3aS,5aR,5bR,7aR,11aS,11bR,13aR,13bR)-5a,5b,8,8,11a-pentamethyl-3a-((2-(4-(methylsulfonyl)piperidin-1-yl)ethyl)amino)-1-(prop-1-en-2-yl)-2,3,3a,4,5,5a,5b,6,7,7a,8,11,11a,11b,12,13,13a,13b-octadecahydro-1H-cyclopenta[a]chrysen-9-yl)cyclohex-3-enecarboxylic acid] | 8.82 | 
C=C(C)[C@@H]1CC[C@]2(NCCN3CCS(=O)(=O)CC3)CC[C@]3(C)[C@H](CC[C@@H]4[C@@]5(C)CC=C(C6=CC7C(C6)C7C(=O)O)C(C)(C)[C@@H]5CC[C@]43C)[C@@H]12 (single isomer, unassigned) [Example A26] | 9.03 | 
C=C(C)[C@@H]1CC[C@]2(NCCS(=O)(=O)c3ccccc3)CC[C@]3(C)[C@H](CC[C@@H]4[C@@]5(C)CC=C(C6=CC=C(C(=O)O)CC6)C(C)(C)[C@@H]5CC[C@]43C)[C@@H]12 [Example A30, 4-((1R,3aS,5aR,5bR,7aR,11aS,11bR,13aR,13bR)-5a,5b,8,8,11a-pentamethyl-3a-((2-(phenylsulfonyl)ethyl)amino)-1-(prop-1-en-2-yl)-2,3,3a,4,5,5a,5b,6,7,7a,8,11,11a,11b,12,13,13a,13b-octadecahydro-1H-cyclopenta[a]chrysen-9-yl)cyclohexa-1,3-dienecarboxylic acid] | 7.05 | 
C=C(C)[C@@H]1CC[C@]2(NCCN3CCS(=O)(=O)CC3)CC[C@]3(C)[C@H](CC[C@@H]4[C@@]5(C)C=CC(=C6CC7(C6)CC(C(=O)O)(C(=O)O)C7)C(C)(C)[C@@H]5CC[C@]43C)[C@@H]12 [Example 2, 6-((1R,3aS,5aR,5bR,7aR,11aS,11bR,13aR,13bR)-3a-((2-(1,1-dioxidothiomorpholino)ethyl)amino)-5a,5b,8,8,11a-pentamethyl-1-(prop-1-en-2-yl)-2,3,3a,4,5,5a,6,7,7a,8,11b,12,13,13a-tetradecahydro-1H-cyclopenta[a]chrysen-9(5bH,11aH,13bH)-ylidene)spiro[3.3]heptane-2,2-dicarboxylic acid, HCl] | 7.52 | 
C=C(C)[C@@H]1CC[C@]2(NCCN3CCS(=O)(=O)CC3)CC[C@]3(C)[C@H](CC[C@@H]4[C@@]5(C)CC=C(C6=CC=C(C(=O)O)CC6)C(C)(C)[C@@H]5CC[C@]43C)[C@@H]12 [Example A29, 4-((1R,3aS,5aR,5bR,7aR,11aS,11bR,13aR,13bR)-3a-((2-(1,1-dioxidothiomorpholino)ethyl)amino)-5a,5b,8,8,11a-pentamethyl-1-(prop-1-en-2-yl)-2,3,3a,4,5,5a,5b,6,7,7a,8,11,11a,11b,12,13,13a,13b-octadecahydro-1H-cyclopenta[a]chrysen-9-yl)cyclohexa-1,3-dienecarboxylic acid] | 8.86 | 
C=C(C)[C@@H]1CC[C@]2(NCCN3CCS(=O)(=O)CC3)CC[C@]3(C)[C@H](CC[C@@H]4[C@@]5(C)CC=C(C6=CC(C)=C(C(=O)O)CC6)C(C)(C)[C@@H]5CC[C@]43C)[C@@H]12 [Example A16, 4-((1R,3aS,5aR,5bR,7aR,11aS,11bR,13aR,13bR)-3a-((2-(1,1-dioxidothiomorpholino)ethyl)amino)-5a,5b,8,8,11a-pentamethyl-1-(prop-1-en-2-yl)-2,3,3a,4,5,5a,5b,6,7,7a,8,11,11a,11b,12,13,13a,13b-octadecahydro-1H-cyclopenta[a]chrysen-9-yl)-2-methylcyclohexa-1,3-dienecarboxylic acid] | 8.65 | 
C=C(C)[C@@H]1CC[C@]2(NCCN3CCS(=O)(=O)CC3)CC[C@]3(C)[C@H](CC[C@@H]4[C@@]5(C)CC=C(C6=CCC(C(=O)O)CC6)C(C)(C)[C@@H]5CC[C@]43C)[C@@H]12 (stereo in doubt) [Example 10, (S)-4-((1R,3aS,5aR,5bR,7aR,11aS,11bR,13aR,13bR)-3a-((2-(1,1-dioxidothiomorpholino)ethyl)amino)-5a,5b,8,8,11a-pentamethyl-1-(prop-1-en-2-yl)-2,3,3a,4,5,5a,5b,6,7,7a,8,11,11a,11b,12,13,13a,13b-octadecahydro-1H-cyclopenta[a]chrysen-9-yl)cyclohex-3-enecarboxylic acid, TFA] | 8.90 | 
C=C(C)[C@@H]1CC[C@]2(NCCN3CCC(S(C)(=O)=O)CC3)CC[C@]3(C)[C@H](CC[C@@H]4[C@@]5(C)CC=C(C6=CC7C(C6)C7C(=O)O)C(C)(C)[C@@H]5CC[C@]43C)[C@@H]12 (single isomer, unassigned) [Example A28] |  | 9.18
C=C(C)[C@@H]1CC[C@]2(NCCN3CCS(=O)(=O)CC3)CC[C@]3(C)[C@H](CC[C@@H]4[C@@]5(C)CC=C(C6=CC(C(=O)O)C(C(=O)O)C6)C(C)(C)[C@@H]5CC[C@]43C)[C@@H]12 (single isomer, unassigned) [Example A19] | 7.00 | 
C=C(C)[C@@H]1CC[C@]2(NCCN3CCS(=O)(=O)CC3)CC[C@]3(C)[C@H](CC[C@@H]4[C@@]5(C)CC=C(C6=COC(C)(C(=O)O)OC6)C(C)(C)[C@@H]5CC[C@]43C)[C@@H]12 (stereo partly drawn) [Example A17, 5-((1R,3aS,5aR,5bR,7aR,11aS,11bR,13aR,13bR)-3a-((2-(1,1-dioxidothiomorpholino)ethyl)amino)-5a,5b,8,8,11a-pentamethyl-1-(prop-1-en-2-yl)-2,3,3a,4,5,5a,5b,6,7,7a,8,11,11a,11b,12,13,13a,13b-octadecahydro-1H-cyclopenta[a]chrysen-9-yl)-2-methyl-4H-1,3-dioxine-2-carboxylic acid] | 6.49 | 
C=C(C)[C@@H]1CC[C@]2(NCCN3CCC(S(C)(=O)=O)CC3)CC[C@]3(C)[C@H](CC[C@@H]4[C@@]5(C)CC=C(C6=CCC(CC(=O)O)CC6)C(C)(C)[C@@H]5CC[C@]43C)[C@@H]12 (mixture of isomers) [Example A33, 2-(4-((1R,3aS,5aR,5bR,7aR,11aS,11bR,13aR,13bR)-5a,5b,8,8,11a-pentamethyl-3a-((2-(4-(methylsulfonyl)piperidin-1-yl)ethyl)amino)-1-(prop-1-en-2-yl)-2,3,3a,4,5,5a,5b,6,7,7a,8,11,11a,11b,12,13,13a,13b-octadecahydro-1H-cyclopenta[a]chrysen-9-yl)cyclohex-3-en-1-yl)acetic acid] | 6.24 | 
C=C(C)[C@@H]1CC[C@]2(NCCO)CC[C@]3(C)[C@H](CC[C@@H]4[C@@]5(C)CC=C(C6=CC[C@@H](C(=O)O)CC6)C(C)(C)[C@@H]5CC[C@]43C)[C@@H]12 [Example 20, (S)-4-((1R,3aS,5aR,5bR,7aR,11aS,11bR,13aR,13bR)-3a-((2-hydroxyethyl)amino)-5a,5b,8,8,11a-pentamethyl-1-(prop-1-en-2-yl)-2,3,3a,4,5,5a,5b,6,7,7a,8,11,11a,11b,12,13,13a,13b-octadecahydro-1H-cyclopenta[a]chrysen-9-yl)cyclohex-3-enecarboxylic acid, TFA] | 8.80 | 
C=C(C)[C@@H]1CC[C@]2(N)CC[C@]3(C)[C@H](CC[C@@H]4[C@@]5(C)CC=C(C6=CCC(C(=O)O)CC6)C(C)(C)[C@@H]5CC[C@]43C)[C@@H]12 (stereo partly drawn) [Example 17, 4-((1R,3aS,5aR,5bR,7aR,11aS,11bR,13aR,13bR)-3a-amino-5a,5b,8,8,11a-pentamethyl-1-(prop-1-en-2-yl)-2,3,3a,4,5,5a,5b,6,7,7a,8,11,11a,11b,12,13,13a,13b-octadecahydro-1H-cyclopenta[a]chrysen-9-yl)cyclohex-3-enecarboxylic acid, HCl] | 9.06 | 
C=C(C)[C@@H]1CC[C@]2(NCCN3CCS(=O)(=O)CC3)CC[C@]3(C)[C@H](CC[C@@H]4[C@@]5(C)CC=C(C6=CCC(CO)(C(=O)O)CC6)C(C)(C)[C@@H]5CC[C@]43C)[C@@H]12 (stereo partly drawn) [Example A12, 4-((1R,3aS,5aR,5bR,7aR,11aS,11bR,13aR,13bR)-3a-((2-(1,1-dioxidothiomorpholino)ethyl)amino)-5a,5b,8,8,11a-pentamethyl-1-(prop-1-en-2-yl)-2,3,3a,4,5,5a,5b,6,7,7a,8,11,11a,11b,12,13,13a,13b-octadecahydro-1H-cyclopenta[a]chrysen-9-yl)-1-(hydroxymethyl)cyclohex-3-enecarboxylic acid] | 8.61 | 
